The structures appear in SMILES notation. “Also recorded” adds a separate entry of the source. Read-outs that look alike come from different tables or passages of the source.

The text below walks through data of patent US9981972B2, “N-hydroxy bicyclic hydantoin carbamates as tools for identification of serine hydrolase targets” (ABIDE THERAPEUTICS, INC., priority 2014, dated 2018).

The target in one assay is T1, mABHD3 (Mus musculus, UniProt Q91ZH7).
T1 construct: expressed in transfected cells; host or cells: HEK293T, transient transfection, pCMV-Sport6; lysate used in vitro
T1 sequence (Q91ZH7 1-411): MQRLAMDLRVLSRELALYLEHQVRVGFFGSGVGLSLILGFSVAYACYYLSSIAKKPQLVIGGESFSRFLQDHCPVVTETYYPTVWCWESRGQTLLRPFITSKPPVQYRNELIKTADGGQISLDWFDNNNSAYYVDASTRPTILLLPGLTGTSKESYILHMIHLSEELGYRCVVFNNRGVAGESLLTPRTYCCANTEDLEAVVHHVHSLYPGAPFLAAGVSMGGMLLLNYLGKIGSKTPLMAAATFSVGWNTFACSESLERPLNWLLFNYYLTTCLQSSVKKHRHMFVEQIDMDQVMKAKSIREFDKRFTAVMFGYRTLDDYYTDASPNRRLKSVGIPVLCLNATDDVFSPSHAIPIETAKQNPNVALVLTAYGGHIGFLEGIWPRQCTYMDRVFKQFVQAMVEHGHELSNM
Put plainly: Gel-based competitive ABPP, recombinant enzyme in transfected HEK293T cell lysates. Type of assay: biochemical. The method, then: (§1) HEK293T cells were seeded at 2×10^5 per well on 6 well plates and grown for 48 h. They were then transfected with mABHD3 (pCMV-Sport6), hABHD4 (pcDNA3.1/myc-his), hPPT1 (pCMV6-XL5), or hPPT1 S115A (pCMV6-XL5), by incubating 0.5 μg of DNA with 3 μL of PEI MAX (1 mg/mL, Polysciences, Inc) in serum-free DMEM for 30 min, then adding them to cells. After 48 h cells were either treated with compound in situ, as described above, or harvested for in vitro studies. The […] PPT1 mutation was introduced using QuikChange II Site Directed Mutagenesis Kit (Agilent) with the following primers: […]
Human ABHD3 and ABHD4 were recombinantly expressed by transient transfection in HEK293T cells, and the cell lysates were combined to provide a convenient assay for monitor inhibition of both enzymes by gel-based ABPP (see FIG. 8A).

Assay [1] deals with T2, PPT1 (Homo sapiens, UniProt P50897).
T2 sequence (P50897 28-306): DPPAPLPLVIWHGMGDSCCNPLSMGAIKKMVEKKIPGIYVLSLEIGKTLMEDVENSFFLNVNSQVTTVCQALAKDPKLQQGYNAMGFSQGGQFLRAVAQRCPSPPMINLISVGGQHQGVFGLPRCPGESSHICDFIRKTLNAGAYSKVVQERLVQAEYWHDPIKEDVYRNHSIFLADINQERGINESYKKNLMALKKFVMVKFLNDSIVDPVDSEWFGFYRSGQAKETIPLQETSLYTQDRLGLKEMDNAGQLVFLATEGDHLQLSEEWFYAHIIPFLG
Put plainly: In situ inhibition of hPPT1 in transfected HEK293T cells, competitive ABPP with Compound 39 probe. The format is cell-based. The arrangement: expressed in transfected cells; host or cells: HEK293T. As for the experimental part: as §1
In situ inhibitor treatments of human cell lines were performed as described previously (Hsu et al., J Med Chem 56, 8270-8279, 2012). Briefly, PC3 or transfected HEK293T cells were grown to confluency in serum-containing media (RPMI or DMEM, respectively). The culture media was then removed and replaced with fresh media containing DMSO or inhibitor at the desired concentration and incubated for 4 hours in a tissue culture incubator (37° C., 5% CO2). Cells were then washed with PBS, harvested, washed with PBS once more, and lysed with a probe sonicator.
This possibility was explored by treating HEK293T cells transfected with human PPT1 (hPPT1) with Compound 37 (5 μM, 4 h pre-treatment) or DMSO followed by cell lysis and treatment with Compound 39 (5 μM, 1 h). A strong, but diffuse Compound 37-sensitive, Compound 39-labeled protein band was detected by gel-based ABPP in hPPT1-transfected, but not mock-transfected cell lysates (see FIG. 14), and this diffuse signal was compressed to a tight, faster-migrating band matching the predicted molecular weight of PPT1 following treatment with the glycosidase PNGaseF (see FIG. 14). Western blotting with an anti-PPT1 antibody confirmed a similar migration pattern for hPPT1 protein in transfected cell lysates (see FIG. 14, bottom panel).
A structurally diverse panel of N-hydroxy bicyclic hydantoin carbamates were assayed at 2 or 0.2 μM for in situ inhibition of hPPT1 in transfected HEK293T cells.

The target of assay [2] is T2, PPT1. Put plainly: PPT1 substrate assay in vitro, hPPT1-transfected HEK293T cell lysates. Set-up: expressed in transfected cells; host or cells: HEK293T. Type of assay: biochemical. Conditions: for activity against PPT1 in situ and in vitro: in words, figures in the 9th table. The method, then:
PPT1 activity was assessed in vitro using a substrate assay adapted from previous studies (van Diggelen et al., Molecular genetics and metabolism 66, 240-244, 1999). Lysates from HEK293T cells transfected with an empty vector, or human PPT1 under a CMV promoter were adjusted to 1 mg/ml in PBS (25 μl), and then combined 1:1 with Mcllvain's phosphate/citrate buffer containing 0.375% (v/v) Triton-X 100 and 15 mM DTT (pH 5.0). This sample was pre-treated with inhibitor or DMSO for 30 minutes at 37° C., and 10 μl (5 μg protein) was used in the substrate assay as follows: Samples were diluted in a black 96-well plate (half-area) with 20 μl McIlvain's phosphate/citrate buffer (pH 5.0) containing 0.375% TX-100 and 15 mM DTT, as well as 0.64 mM MU-6S-Palm-PD-Glc and 0.1 U sweet almond glucosidase (Sigma). The reactions were incubated at 37° C. for 1 hour, quenched with 120 μl sodium bicarbonate buffer (pH 10.0), and hydrolysis by 4-MU fluorescence measured by excitement at […] and emission intensity at […]. 16 μg protein was used for analysis of native PC3 cells.
Compound 26 was then tested to see if it inhibited PPT1 activity using a substrate assay. Endogenous substrates for PPT1 remain poorly characterized, but this enzyme was assayed with a fluorogenic substrate 4-methylumbelliferyl-6-thio-palmitate-βD-glucopyranoside (MU-6S-Palm-βD-Glc). In this assay, PPT1 hydrolyzes the substrate's palmitoyl thioester bond, and exogenous sweet almond β-glucosidase deglycosylates and frees the fluorophore, 4-methylumbelliferone (4-MU), which is measured to assess PPT1 activity.

The mark [3] stands for this setting: transfected HEK293T lysates, read-out: mABHD3 in vitro potency (IC50).
[4] abbreviates: hPPT1-transfected HEK293T cells, in situ, read-out: hPPT1 (in situ), IC50.
The mark [5] stands for this setting: cell lysates, pH 5.0, MU-6S-Palm-βD-Glc substrate, 95% confidence intervals in parentheses, read-out: IC50 for inhibition of human PPT1, in vitro (substrate).

A word on the IC50: it is the concentration at which inhibition is half-maximal. As to `COc1ccc(N2CCN(C(=O)ON3C(=O)C4CN(Cc5ccc(Oc6ccccc6)cc5)CCN4C3=O)CC2)cc1` (stereo not shown) [Compound 37, 1,3-dioxo-7-(4-phenoxybenzyl)hexahydroimidazo[1,5-a]pyrazin-2(3H)-yl 4-(4-methoxyphenyl)piperazine-1-carboxylate], at mABHD3 (setting [3]), the half-maximal inhibitory concentration (IC50) was 7.6 µM. The “hPPT1 (in situ), % @ 2 μM” value at PPT1 [1] (2 μM, hPPT1-transfected HEK293T cells, in situ) was 100% @ 2 μM. Besides, the “reaction with hPPT1 / blockade of Compound 39 labeling” value on PPT1 [1] (5 μM, 4 h pre-treatment, hPPT1-transfected HEK293T cells) is given as “blocked; also recorded: reacted with PPT1”.

For `O=C(ON1C(=O)C2CN(Cc3ccc(Oc4ccccc4)cc3)CCN2C1=O)N1CCOCC1` (stereo not shown) [Compound 34, 1,3-dioxo-7-(4-phenoxybenzyl)hexahydroimidazo[1,5-a]pyrazin-2(3H)-yl morpholine-4-carboxylate], the IC50 was greater than 10 µM on mABHD3 (setting [3]), 3.9 µM at PPT1 [1] (setting [4]) and greater than 50 µM on PPT1 [2] (setting [5]). On PPT1 [2], the “activity against PPT1 in situ and in vitro” value is reported as “limited activity against PPT1”.

For `COc1ccc(N2CCN(C(=O)ON3C(=O)C4CN(CC5CCN(Cc6ccccc6)CC5)CCN4C3=O)CC2)cc1` (stereo not shown) [Compound 26, 7-((1-benzylpiperidin-4-yl)methyl)-1,3-dioxohexahydroimidazo[1,5-a]pyrazin-2(3H)-yl 4-(4-methoxyphenyl)piperazine-1-carboxylate], the “in situ inhibition of hPPT1 at 200 nM” value at PPT1 [1] (200 nM, transfected HEK293T cells) is “complete inhibition”. Also, the IC50 at PPT1 [1] (gel-based competitive ABPP, read-out: in situ IC50 for recombinant PPT1) was found to be 0.1 µM; at PPT1 [2] (transfected lysates, pH 5.0, MU-6S-Palm-βD-Glc, read-out: PPT1 IC50, substrate assay) it was 6.5 µM.

On to `O=C(ON1C(=O)C2CN(Cc3ccc(Oc4ccccc4)cc3)CCN2C1=O)N1CCC(c2ccccc2)CC1` (stereo not shown) [Compound 38, 1,3-dioxo-7-(4-phenoxybenzyl)hexahydroimidazo[1,5-a]pyrazin-2(3H)-yl 4-phenylpiperidine-1-carboxylate], for which the IC50 came to 0.13 µM at mABHD3 (combined HEK293T lysates, gel-based ABPP, read-out: ABHD3 IC50) and 0.1 µM on mABHD3 (setting [3]).

As to `COc1ccc(N2CCN(C(=O)ON3C(=O)[C@@H]4CN(CC5CCN(Cc6ccccc6)CC5)CCN4C3=O)CC2)cc1` [Compound 42, (S)-7-((1-benzylpiperidin-4-yl)methyl)-1,3-dioxo-hexahydroimidazo[1,5-a]pyrazin-2(3H)-yl 4-(4-methoxyphenyl)piperazine-1-carboxylate], the IC50 at PPT1 [2] (human PPT1, in vitro, method not stated at Table 5, read-out: hPPT1 in vitro potency (IC50)) turned out to be 3.97 µM.

Turning to `O=C(ON1C(=O)C2CN(C(=O)N3CCOCC3)CCN2C1=O)N1CCC(CCc2ccc(Cl)cc2)CC1` (stereo not shown) [Compound 1, 7-(morpholine-4-carbonyl)-1,3-dioxohexahydroimidazo[1,5-a]pyrazin-2(3H)-yl 4-(4-chloro-phenethyl)piperidine-1-carboxylate], the IC50 at PPT1 [1] (setting [4]) stood at 0.5 µM; at PPT1 [2] (setting [5]), 15 µM. The “activity against PPT1 in situ and in vitro” value at PPT1 [2] is on record as “did, however, inhibit PPT1 activity”.
